Test: Henry solubility constant Hcp at 301 K (mol/(m3 Pa))
Details: reference: Hansen et al. (1993)

With `C1CCCCC1` [cyclohexane] the “Henry solubility constant Hcp at 301 K” value was 6e-05.

Test: Henry solubility constant Hcp at 302 K (mol/(m3 Pa))
Details: reference: Hansen et al. (1993)

In order of falling “Henry solubility constant Hcp at 302 K” value:
1. c1ccccc1 [benzene]  0.0015
2. Cc1ccccc1 [methylbenzene]  0.0014

Test: Henry solubility constant Hcp at 298.15 K (mol/(m3 Pa))
Details: reference: Hansen et al. (1993)

In order of falling “Henry solubility constant Hcp” value:
1. ClCC(Cl)Cl [1,1,2-trichloroethane]  0.012
2. Brc1ccccc1 [bromobenzene]  0.0053
3. Cc1ccc(C)c(C)c1 [1,2,4-trimethylbenzene]  0.0015
4. Cc1ccc(C)cc1 [1,4-dimethylbenzene]  0.0012
5. CC(C)c1ccccc1 [(2-propyl)-benzene]  0.00087
6. CC(Cl)(Cl)Cl [1,1,1-trichloroethane]  0.00059
7. ClC(Cl)(Cl)Cl [tetrachloromethane]  0.00033
8. CC1CCCCC1 [methylcyclohexane]  9.6e-05
9. C1CCCC1 [cyclopentane]  6.5e-05
10. Cc1ccc2ccccc2c1 [2-methylnaphthalene]  5e-05
11. CCCCCCCC [octane]  3e-05
12. CCCCC(C)C [2-methylhexane]  1.9e-05
13. CCCCCCC [heptane]  1.2e-05
